Results as given in article PMC11003488 (Journal of Enzyme Inhibition and Medicinal Chemistry, 2023).
Where “and” joins values, the source holds several entries; their conditions need not be identical. Equal entries are not always repeated. Where two headings read alike, the source gives them in different places.

How the values were obtained:
Leukaemia cell lines = assay: NCI-60 SRB growth inhibition, subpanel; type: cell-based, human; details: for GI50: Homo sapiens
CAKI-1 = assay: NCI-60 SRB growth inhibition, one-dose and five-dose; type: cell-based; details: Homo sapiens
Bax [1] = assay: Protein level by ELISA assay in HCT-116; type: cell-based, human; details: HCT-116, IC50 of compound, 24 h, vs 0.1% DMSO
SF-295 = assay: NCI-60 SRB growth inhibition, one-dose and five-dose; type: cell-based; details: Homo sapiens
HCT-116 (colon cancer) [2] = assay: Apoptosis AV/PI assay by flow cytometry; type: cell-based, human; details: HCT-116, 24 h, IC50 of compound
NSCLC cell lines = assay: NCI-60 SRB growth inhibition, subpanel; type: cell-based, human; details: for GI50: Homo sapiens
SN12C = assay: NCI-60 SRB growth inhibition, one-dose and five-dose; type: cell-based; details: Homo sapiens
Renal cancer cell lines = assay: NCI-60 SRB growth inhibition, subpanel; type: cell-based, human; details: for GI50: Homo sapiens
MDA-MB-231/ATCC = assay: NCI-60 SRB growth inhibition, one-dose and five-dose; type: cell-based; details: Homo sapiens
[3] = tested on: WI-38 normal human fibroblast cells; assay: Cytotoxicity towards normal fibroblasts, safety index; type: cell-based; details: WI-38 versus cancer cell lines
[4] = as above; type: cell-based, human; details: human, WI-38 normal fibroblast cells
MOLT-4 = assay: NCI-60 SRB growth inhibition, one-dose and five-dose; type: cell-based; details: Homo sapiens
Colon cancer cell lines = assay: NCI-60 SRB growth inhibition, subpanel; type: cell-based, human; details: for GI50: Homo sapiens
SR = assay: NCI-60 SRB growth inhibition, one-dose and five-dose; type: cell-based; details: Homo sapiens
Bax [5] = assay: Gene expression by RT-qPCR in HCT-116; details: HCT-116, 24 h
DU-145 = assay: NCI-60 SRB growth inhibition, one-dose and five-dose; type: cell-based; details: Homo sapiens
OVCAR-8 = assay: as above; type: cell-based; details: Homo sapiens
HCT-116 (colon cancer) [6] = assay: Cell cycle analysis by PI flow cytometry; type: cell-based, human; details: HCT-116, 24 h, IC50 of compound
SNB-19 = assay: NCI-60 SRB growth inhibition, one-dose and five-dose; type: cell-based; details: Homo sapiens
MDA-MB-468 = assay: as above; type: cell-based; details: Homo sapiens
Caspase-3 [7] = assay: Protein level by ELISA assay in HCT-116; type: cell-based, human; details: HCT-116, IC50 of compound, 24 h, vs 0.1% DMSO
SW-620 = assay: NCI-60 SRB growth inhibition, one-dose and five-dose; type: cell-based; details: Homo sapiens
RXF 393 = assay: as above; type: cell-based; details: Homo sapiens
A549/ATCC = assay: as above; type: cell-based; details: Homo sapiens
TNF-α = assay: Gene expression by RT-qPCR in HCT-116; details: HCT-116, 24 h, IC50 of compound; vs 0.1% DMSO; 2^-ΔΔct
SF-539 = assay: NCI-60 SRB growth inhibition, one-dose and five-dose; type: cell-based; details: Homo sapiens
[8] = tested on: Ovarian cancer cell lines; assay: NCI-60 SRB growth inhibition, subpanel; type: cell-based, human; details: for GI50: Homo sapiens
UACC-257 = assay: NCI-60 SRB growth inhibition, one-dose and five-dose; type: cell-based; details: Homo sapiens
RPMI-8226 = assay: as above; type: cell-based; details: Homo sapiens
Melanoma cell lines = assay: NCI-60 SRB growth inhibition, subpanel; type: cell-based, human; details: for GI50: Homo sapiens
Human VEGFR-2 = Human VEGFR-2 (Homo sapiens, UniProt P35968); assay: VEGFR-2 inhibition assay; type: biochemical
Caspase-3 [9] = assay: Gene expression by RT-qPCR in HCT-116; details: HCT-116, 24 h, IC50 of compound; vs 0.1% DMSO; 2^-ΔΔct
UO-31 = assay: NCI-60 SRB growth inhibition, one-dose and five-dose; type: cell-based; details: Homo sapiens
Breast cancer cell lines = assay: NCI-60 SRB growth inhibition, subpanel; type: cell-based, human; details: for GI50: Homo sapiens
MDA-MB-435 = assay: NCI-60 SRB growth inhibition, one-dose and five-dose; type: cell-based; details: Homo sapiens
HL-60(TB) = assay: cells; type: cell-based; details: Homo sapiens
[10] = tested on: Prostate cancer cell lines; assay: NCI-60 SRB growth inhibition, subpanel; type: cell-based, human; details: for GI50: Homo sapiens
CNS cancer cell lines = assay: NCI-60 SRB growth inhibition, subpanel; type: cell-based, human; details: for GI50: Homo sapiens
[11] = read-out: percent growth inhibition

Chain of Human VEGFR-2 (P35968 20-1356): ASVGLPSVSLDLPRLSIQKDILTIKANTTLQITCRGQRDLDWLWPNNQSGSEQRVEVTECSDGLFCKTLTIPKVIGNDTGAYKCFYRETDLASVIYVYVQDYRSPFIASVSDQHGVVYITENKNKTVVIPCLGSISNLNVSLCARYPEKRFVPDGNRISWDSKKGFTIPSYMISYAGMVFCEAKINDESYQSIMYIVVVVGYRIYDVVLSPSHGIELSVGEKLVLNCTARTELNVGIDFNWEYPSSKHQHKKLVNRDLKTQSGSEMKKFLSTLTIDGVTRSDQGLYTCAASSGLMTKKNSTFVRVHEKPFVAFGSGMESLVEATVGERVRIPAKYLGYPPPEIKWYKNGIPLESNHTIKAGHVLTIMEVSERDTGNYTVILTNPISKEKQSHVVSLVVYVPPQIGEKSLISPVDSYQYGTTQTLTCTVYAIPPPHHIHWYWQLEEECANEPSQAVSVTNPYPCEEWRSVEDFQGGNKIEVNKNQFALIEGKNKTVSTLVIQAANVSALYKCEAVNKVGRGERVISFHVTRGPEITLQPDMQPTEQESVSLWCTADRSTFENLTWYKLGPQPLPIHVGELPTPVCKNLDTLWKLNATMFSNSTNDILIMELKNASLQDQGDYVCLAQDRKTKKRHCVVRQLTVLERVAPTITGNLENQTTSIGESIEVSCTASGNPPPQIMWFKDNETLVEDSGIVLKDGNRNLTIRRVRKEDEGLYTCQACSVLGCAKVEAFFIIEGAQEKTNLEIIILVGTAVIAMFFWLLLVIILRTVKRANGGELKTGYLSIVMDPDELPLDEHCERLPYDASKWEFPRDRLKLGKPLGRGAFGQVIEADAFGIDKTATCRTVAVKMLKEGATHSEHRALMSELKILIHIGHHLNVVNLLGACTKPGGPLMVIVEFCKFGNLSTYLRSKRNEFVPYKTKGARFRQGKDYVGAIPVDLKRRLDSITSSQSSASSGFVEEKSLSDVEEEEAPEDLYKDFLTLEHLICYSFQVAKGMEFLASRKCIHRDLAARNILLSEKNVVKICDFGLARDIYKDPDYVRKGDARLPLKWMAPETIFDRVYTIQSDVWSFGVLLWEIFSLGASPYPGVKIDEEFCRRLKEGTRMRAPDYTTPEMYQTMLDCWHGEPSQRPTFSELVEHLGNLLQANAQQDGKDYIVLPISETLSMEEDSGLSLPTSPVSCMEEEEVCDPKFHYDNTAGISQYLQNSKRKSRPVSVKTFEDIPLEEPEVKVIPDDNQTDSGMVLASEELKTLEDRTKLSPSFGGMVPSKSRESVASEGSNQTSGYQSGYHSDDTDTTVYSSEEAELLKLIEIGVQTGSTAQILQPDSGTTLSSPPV

Q: Which GI50 (Leukaemia cell lines; read-out: GI50 MG-MID) does the source give for COc1ccc(CNc2cccc(C(=O)/C=C/c3ccc(NC(C)=O)cc3)c2)cc1OC [Compound 5h, (E)-N-(4–(3-(3-((3,4-dimethoxybenzyl)amino)phenyl)-3-oxoprop-1-en-1-yl)phenyl) acetamide] here?
A: 2.36 µM

Q: And the GI50 (Leukaemia cell lines; read-out: MG-MID GI50)?
A: 2.36 µM

Q: What about the “SI (Selectivity Index)” value (Leukaemia cell lines; full panel MG-MID / leukaemia subpanel MG-MID) of the same compound?
A: 1.90

Q: And the GI50 (CAKI-1; CAKI-1)?
A: 3.15 µM

Q: And the inhibition at 10 µM (CAKI-1; CAKI-1, read-out: percent growth inhibition)?
A: 56.4%

Q: And the Bax protein level (Bax [1])?
A: 2.96 fold

Q: What about the GI50 (SF-295; SF-295) of the same compound?
A: 7.83 µM

Q: And the inhibition at 10 µM (SF-295; SF-295, read-out: percent growth inhibition)?
A: 84.1%

Q: And the “% Early apoptotic cells (LR)” value (HCT-116 (colon cancer) [2])?
A: 0.24 ± 0.01%

Q: And the “% Late apoptotic cells (UL)” value (HCT-116 (colon cancer) [2])?
A: 64.62 ± 10.1%

Q: What about the “% Necrotic cells (UR)” value (HCT-116 (colon cancer) [2]) of the same compound?
A: 2.25 ± 0.71%

Q: And the “% Viable cells (LL)” value (HCT-116 (colon cancer) [2])?
A: 32.89 ± 3.8%

Q: What about the GI50 (NSCLC cell lines; read-out: GI50 MG-MID) of the same compound?
A: 8.91 µM

Q: What about the GI50 (NSCLC cell lines; read-out: MG-MID GI50) of the same compound?
A: 8.91 µM

Q: And the “SI (Selectivity Index)” value (NSCLC cell lines; full panel MG-MID / NSCLC subpanel MG-MID)?
A: 0.50

Q: What about the GI50 (SN12C) of the same compound?
A: 2.48 µM

Q: What about the inhibition at 10 µM (SN12C; [11]) of the same compound?
A: 135%

Q: What about the GI50 (Renal cancer cell lines; read-out: GI50 MG-MID) of the same compound?
A: 3.99 µM

Q: And the GI50 (Renal cancer cell lines; read-out: MG-MID GI50)?
A: 3.99 µM

Q: And the “SI (Selectivity Index)” value (Renal cancer cell lines; full panel MG-MID / Renal Cancer subpanel MG-MID)?
A: 1.12

Q: And the GI50 (MDA-MB-231/ATCC; MDA-MB-231)?
A: 2.84 µM

Q: And the inhibition at 10 µM (MDA-MB-231/ATCC; MDA-MB-231, read-out: percent growth inhibition)?
A: 89.4%

Q: What about the Safety index [3] of the same compound?
A: >1

Q: What about the GI50 at 48 h [4] of the same compound?
A: > 100 µM

Q: And the GI50 (MOLT-4; MOLT-4)?
A: 2.68 µM

Q: What about the inhibition at 10 µM (MOLT-4; MOLT-4, read-out: percent growth inhibition) of the same compound?
A: 78.3%

Q: What about the GI50 (Colon cancer cell lines; read-out: GI50 MG-MID) of the same compound?
A: 3.24 µM

Q: What about the GI50 (Colon cancer cell lines; read-out: MG-MID GI50) of the same compound?
A: 3.24 µM

Q: What about the “SI (Selectivity Index)” value (Colon cancer cell lines; full panel MG-MID / Colon Cancer subpanel MG-MID) of the same compound?
A: 1.38

Q: What about the GI50 (SR) of the same compound?
A: 1.93 µM

Q: What about the inhibition at 10 µM (SR; [11]) of the same compound?
A: 98.3%

Q: And the “Bax gene expression fold change” value (Bax [5]; IC50 of compound, vs 0.1% DMSO, 2^-ΔΔct)?
A: 30.06 ± 3.4 fold

Q: And the Bax/Bcl-2 ratio (Bax [5]; ratio of gene expression fold changes)?
A: 31.6

Q: And the GI50 (DU-145; DU-145)?
A: 4.25 µM

Q: And the inhibition at 10 µM (DU-145; DU-145, read-out: percent growth inhibition)?
A: 75.4%

Q: And the GI50 (OVCAR-8; OVCAR-8)?
A: 2.97 µM

Q: What about the inhibition at 10 µM (OVCAR-8; OVCAR-8, read-out: percent growth inhibition) of the same compound?
A: 95.7%

Q: And the “% G0-G1” value (HCT-116 (colon cancer) [6])?
A: 35.12 ± 3.5%

Q: And the “% G2M” value (HCT-116 (colon cancer) [6])?
A: 3.21 ± 1.1%

Q: What about the “% S” value (HCT-116 (colon cancer) [6]) of the same compound?
A: 4.91 ± 1.1%

Q: And the “% SubG0-G1” value (HCT-116 (colon cancer) [6])?
A: 56.87 ± 7.7%

Q: What about the GI50 (SNB-19; SNB-19) of the same compound?
A: 5.19 µM

Q: What about the inhibition at 10 µM (SNB-19; SNB-19, read-out: percent growth inhibition) of the same compound?
A: 56.9%

Q: What about the GI50 (MDA-MB-468; MDA-MB-468) of the same compound?
A: 2.44 µM

Q: What about the inhibition at 10 µM (MDA-MB-468; MDA-MB-468, read-out: percent growth inhibition) of the same compound?
A: 166%

Q: And the caspase-3 protein level (Caspase-3 [7])?
A: 43.12 fold

Q: What about the GI50 (SW-620; SW-620) of the same compound?
A: 2 µM

Q: And the inhibition at 10 µM (SW-620; SW-620, read-out: percent growth inhibition)?
A: 157%

Q: And the GI50 (RXF 393; RXF 393)?
A: 1.87 µM

Q: And the inhibition at 10 µM (RXF 393; RXF 393, read-out: percent growth inhibition)?
A: 132%

Q: What about the GI50 (A549/ATCC; A549) of the same compound?
A: 23.6 µM

Q: And the inhibition at 10 µM (A549/ATCC; A549, read-out: percent growth inhibition)?
A: 77.3%

Q: What about the “TNF-α gene expression fold change” value (TNF-α) of the same compound?
A: 2.2 fold and 2.20 ± 0.17 fold

Q: And the GI50 (SF-539; SF-539)?
A: 2.31 µM

Q: What about the inhibition at 10 µM (SF-539; SF-539, read-out: percent growth inhibition) of the same compound?
A: 174%

Q: What about the GI50 ([8]; read-out: GI50 MG-MID) of the same compound?
A: 5.75 µM

Q: What about the GI50 ([8]; read-out: MG-MID GI50) of the same compound?
A: 5.75 µM

Q: What about the “SI (Selectivity Index)” value ([8]; full panel MG-MID / Ovarian Cancer subpanel MG-MID) of the same compound?
A: 0.78

Q: What about the GI50 (UACC-257; UACC-257) of the same compound?
A: 9.28 µM

Q: What about the inhibition at 10 µM (UACC-257; UACC-257, read-out: percent growth inhibition) of the same compound?
A: 61.5%

Q: And the GI50 (RPMI-8226; RPMI-8226)?
A: 1.79 µM

Q: And the inhibition at 10 µM (RPMI-8226; RPMI-8226, read-out: percent growth inhibition)?
A: 112%

Q: And the GI50 (Melanoma cell lines; read-out: GI50 MG-MID)?
A: 4.44 µM

Q: What about the GI50 (Melanoma cell lines; read-out: MG-MID GI50) of the same compound?
A: 4.44 µM

Q: And the “SI (Selectivity Index)” value (Melanoma cell lines; full panel MG-MID / Melanoma subpanel MG-MID)?
A: 1.01

Q: And the IC50 (Human VEGFR-2)?
A: 0.31 ± 0.015 µM

Q: And the “Caspase-3 gene expression fold change” value (Caspase-3 [9])?
A: 0.002 fold

Q: And the GI50 (UO-31; UO-31)?
A: 3 µM

Q: And the inhibition at 10 µM (UO-31; UO-31, read-out: percent growth inhibition)?
A: 160%

Q: And the GI50 (Breast cancer cell lines; read-out: GI50 MG-MID)?
A: 2.91 µM

Q: And the GI50 (Breast cancer cell lines; read-out: MG-MID GI50)?
A: 2.91 µM

Q: And the “SI (Selectivity Index)” value (Breast cancer cell lines; full panel MG-MID / Breast Cancer subpanel MG-MID)?
A: 1.54

Q: And the GI50 (MDA-MB-435; MDA-MB-435)?
A: 2.22 µM

Q: What about the inhibition at 10 µM (MDA-MB-435; MDA-MB-435, read-out: percent growth inhibition) of the same compound?
A: 133%

Q: And the GI50 (HL-60(TB); HL-60)?
A: 2.54 µM

Q: What about the inhibition at 10 µM (HL-60(TB); HL-60, read-out: percent growth inhibition) of the same compound?
A: 78.8%

Q: What about the GI50 ([10]; read-out: GI50 MG-MID) of the same compound?
A: 3.53 µM

Q: What about the GI50 ([10]; read-out: MG-MID GI50) of the same compound?
A: 3.53 µM

Q: What about the “SI (Selectivity Index)” value ([10]; full panel MG-MID / Prostatic Cancer subpanel MG-MID) of the same compound?
A: 1.27

Q: And the GI50 (CNS cancer cell lines; read-out: GI50 MG-MID)?
A: 5.22 µM

Q: And the GI50 (CNS cancer cell lines; read-out: MG-MID GI50)?
A: 5.22 µM

Q: And the “SI (Selectivity Index)” value (CNS cancer cell lines; full panel MG-MID / CNS Cancer subpanel MG-MID)?
A: 0.86
